# Source: patent US4835139A, “Process for increasing the antagonistic effect of peptidic compounds on hormone-dependent diseases” (Debiopharm S.A., priority 1983, dated 1989)
# How the values were obtained:
# [1] = Body and organ weights of the rats bearing the Dunning R-3327-H tumor; settings: 30 days, encapsulated 25 micrograms daily i.m.
# Procedure: In vivo tests were carried out on groups of 7 to 10 animals during a period of 30 days.
# The administration of the non-encapsulated Compound A adequately dissolved in a biocompatible solvent was achieved by the subcutaneous injection of two doses every day, each dose containing 25 micrograms of compound A (Table 2) or 12.5 micrograms of compound A (Table 3).
# The administration of the encapsulated compound A was achieved by the daily intra-muscular injection of doses of the preparation suspended in a biocompatible solvent, each such dose containing 25 micrograms of compound A.
# [2] = tested on: prostatic tumor R-3327-H according to Dunning; experiment: Antagonistic effect on Dunning R-3327-H prostate carcinoma in rats, 30 days; type: in vivo; settings: encapsulated 25 micrograms daily i.m.
# From the text: (DUNNING R-3327-H PROSTRATE CARCINOMA).
# [3] = Table 2, non-encapsulated 2 x 25 micrograms/day s.c.
# [4] = Table 3, non-encapsulated 2 x 12.5 micrograms/day s.c.
smiles,measurement,setting,value
"CC(C)C[C@H](NC(=O)[C@@H](Cc1c[nH]c2ccccc12)NC(=O)[C@H](Cc1ccc(O)cc1)NC(=O)[C@H](CO)NC(=O)[C@H](Cc1c[nH]c2ccccc12)NC(=O)[C@H](Cc1c[nH]cn1)NC(=O)[C@@H]1CCC(=O)N1)C(=O)N[C@@H](CCCNC(=N)N)C(=O)N1CCC[C@H]1C(=O)NCC(N)=O [Compound A non-encapsulated, (pyro) Glu-His-Trp-Ser-Tyr-D-Trp-Leu-Arg-Pro-Gly-NH2]",Testicles,[1]; [3],1.36 ± 0.14 g
same,Ventral portion of prostate,[1]; [3],54 + 5 mg
same,Testicles,[1]; [4],1.83 ± 0.07 g
same,Ventral portion of prostate,[1]; [4],88 + 7 mg
same,Increase of tumor volume,[2]; [3],85 + 19%
same,Tumor (Dunning R3327-H Prostate Carcinoma),[2]; [3],546 + 0.14 mg
same,Increase of tumor volume,[2]; [4],110 + 28%
same,Tumor (Dunning R3327-H Prostate Carcinoma),[2]; [4],260 + 68 mg
